Data from patent publication US20160152976A1, “COMPOUND ADMINISTRATION PRECURSOR AND MEDICAMENT CARRIER PREPARATION” (HitGen LTD., priority 2013, published 2016).
{C12NH2} = amino-(CH2)12 linker attached through a phosphate; {C12NH2-P} = aminododecyl phosphate linker; {FITC} = fluorescein isothiocyanate label

Key:
HepG2 cells [1] = assay: Transmembrane transfer of DNA/RNA fragments and drug-delivery precursors into HepG2 cells, laser confocal microscope; format: cell-based; settings: 4 nmol, X-tremeGENEsiRNA transfection reagent, 6 h, laser confocal microscope (FIG. 11)
Description: 24 h before transfer, the HepG2 cells in the phase of logarithmic growth were digested with trypsin; a culture medium containing 10% serum was used for adjusting the cell density to 0.5×10^6 cells/mL; and the cells were inoculated again in a cell culture dish of 15 cm and cultured in a culture incubator containing 5% CO2 at 37° C. The cells may be used for experiments when the cell density reaches 60% to 70% 24 h later.
4 nmol of the above-mentioned single-stranded or double-stranded DNA/RNA fragments in different sequences and various drug-delivery precursors was added to a sterile centrifuge tube (tube A) of 15 mL, respectively, and uniformly mixed with Opti-MEM in a corresponding volume, with a total volume of 2 mL; the X-tremeGENEsiRNA reagent was shaken gently, and 160 μL of X-tremeGENEsiRNA reagent was mixed with 1.84 mL of Opti-MEM in another tube (tube B); and the solution in the tube A was mixed with the solution in the tube B, the mixture was slightly triturated by a pipette and incubated for 20 min at room temperature.
6 mL of RPMI-1640 serum-free culture medium was added to the mixture and mixed uniformly; the primary culture medium in the HepG2 cell culture dish was discarded, and slightly triturated with RPMI-1640 serum-free culture medium once; and then, the mixture was moved into the HepG2-PT cell culture dish, and cultured in a culture incubator containing 5% CO2 at 37° C.

HepG2 cells [2] = settings: original compound 2 linked to the fluorescent tag (FIG. 8A)
Description: 24 h before transfer, the HepG2 cells in the phase of logarithmic growth were digested with trypsin; a culture medium containing 10% serum was used for adjusting the cell density to 1.0×10^7cells/20 mL; and the cells were inoculated again in a cell culture dish of 15 cm and cultured in a culture incubator containing 5% CO2 at 37° C. The cells may be used for experiments when the cell density reaches 60% to 70% 24 h later.
6 mL of RPMI-1640 serum-free culture medium was added to the mixture and mixed uniformly; the primary culture medium in the HepG2 cell culture dish was discarded, and slightly triturated with. RPMI-1640 serum-free culture medium once; and then, the mixture was moved into the HepG2-PT cell culture dish, and cultured in a culture incubator containing 5% CO2 at 37° C.

Row | Compound | transfer into cells and positioning in the cells (HepG2 cells [1]) | entry into cells (HepG2 cells [2])
1 | 5′-NH2—(CH2)2—PO4-A19-3′-FITC [polyA of 19 bp] | may be all transferred into cells by X-tremesiRNA, with most of them into the cytoplasm and a few of them into the cell nucleus | 
2 | 5′-NH2—(CH2)12—PO4TGGGCTGGCCAAACTGCTG-3′-FITC: 5′-CAGCAGTTTGGCCAGCCCA-3′ (chain 1: DNA, 5' {C12NH2-P}, 3' {FITC}, backbone not given here; chain 2: DNA, backbone not given here) | may be all transferred into cells by X-tremesiRNA, with most of them into the cytoplasm and a few of them into the cell nucleus | 
3 | 5′-NH2—(CH2)12—PO4-A5-3′-FITC [polyA of 5 bp] | may be all transferred into cells by X-tremesiRNA, with most of them into the cytoplasm and a few of them into the cell nucleus | 
4 | 5′-NH2—(CH2)12—PO4-A38-3′-FITC [polyA of 38 bp] | may be all transferred into cells by X-tremesiRNA, with most of them into the cytoplasm and a few of them into the cell nucleus | 
5 | 5-NH2—(CH2)12—PO4-TGGGCTGGCCAAACTGCTG-3′-FITC (DNA, 5' {C12NH2}, 3' {FITC}, backbone not given here) | may be all transferred into cells by X-tremesiRNA, with most of them into the cytoplasm and a few of them into the cell nucleus | 
6 | C#CCN(CC1CCN(C(=O)Nc2ccccc2)CC1)c1cccc(-c2sc(C(=O)O)c(OCC(=O)O)c2Br)c1 [compound 2, 4-bromo-3-oxoacetic acid-5-(3-(((1-phenylcarbamoylpiperidine)-4-methyl)-N-propargylamine)phenyl)thiophene-2-formic acid] |  | can not enter the cells
